In PMC9818789, “Identification of Small-Molecule Bioactive Constituents from the Leaves of Vaccinium bracteatum Confirms It as a Potential Functional Food with Health Benefits” (Foods, 2023):

Columns and labels:
[1] = ABTS radical scavenging assay; details: mean ± SD (n = 3); NA = not active (<50% radical scavenging activity at the highest testing concentration of 200 μM); read-out: ABTS free radical scavenging activity IC50
Procedure: The antioxidant effect of the VBL constituents was assessed by besting their free radical scavenging activity with the ABTS (diammonium 2,2′-azino-bis (3-ethylbenzothiazoline-6-sulphonate) and DPPH (1,1-diphenyl-2-picrylhydrazyl) methods, according to the protocols described previously [10], and ascorbic acid was used as the positive control.

[2] = tested on: PC12 cells; assay: Neuroprotective assay: 6-OHDA-induced PC12 cell injury, MTT; assay type: cell-based; details: for Neuroprotective effect against 6-OHDA-induced PC12 cell injury (cell viability): pretreated 12 h, 6-OHDA 150 μM for 13 h
Procedure: The cell cultures were prepared according to the method described by Sergi et al.. Briefly, the protection of compounds 1–8 on 6-hydroxydopamine (6-OHDA)-induced PC 12 cell injury was assessed by MTT (3-(4,5-dimethylthiazol-2-yl)-2,5-diphenyltetrazolium bromide) assay, and N-acetylcysteine (NAC, 50 μM) was used as the positive control. PC12 cells were cultured in RPMI 1640 medium supplemented with 10% fetal bovine serum (FBS), and they were incubated at 37
C in a humidified environment containing 5% CO2 and then cultured in 96-well plates at a density of 1.5 × 10^5 cells/well in 100 μL for 24 h. The neuron cells were first pretreated with various concentrations (25, 50, 100 μM) of tested compounds for 12 h before 6-OHDA (150 μM) treatment for further 13 h. Then, 10 μL of MTT was added to each well and incubated for another 4 h, and the crystals were dissolved with DMSO. The optical density at 490 nm was detected by a plate reader. The cell viability was lastly measured to evaluate the compounds’ protective effect, which was expressed as the percentage of the control group.

[3] = DPPH radical scavenging assay; details: mean ± SD (n = 3); NA = not active (<50% radical scavenging activity at the highest testing concentration of 200 μM); read-out: DPPH free radical scavenging activity IC50
Procedure: The antioxidant effect of the VBL constituents was assessed by besting their free radical scavenging activity with the ABTS (diammonium 2,2′-azino-bis (3-ethylbenzothiazoline-6-sulphonate) and DPPH (1,1-diphenyl-2-picrylhydrazyl) methods, according to the protocols described previously, and ascorbic acid was used as the positive control.

[4] = tested on: NO production in RAW264.7 macrophages; assay: NO production inhibitory assay, lipopolysaccharide-induced macrophages; assay type: cell-based; details: Mus musculus, lipopolysaccharide-induced murine macrophages, read-out: NO production inhibition IC50
Procedure: The nitric oxide (NO) production inhibitory assay was conducted in murine RAW264.7 macrophages as we recorded in an early report, with quercetin as the reference compound.

Row | IC50 [1] | IC50 [3] | SMILES | other results
1 |  |  | NCCc1cc(O)c(O)cc1O [Compound 6-OHDA, 6-hydroxydopamine, reference compound] | Inhibition ratio of PC12 cell viability (6-OHDA-induced cell injury) ([2]; 6-OHDA at 150 μM): 52.68%
2 | 26.2 ± 2.24 µM | 96.2 ± 8.34 µM | COc1cc(C2c3c(cc(OC)c(O)c3OC)CC(CO)C2CO)cc(OC)c1O (stereo not shown) [Compound 16b, polystachyol] | 
3 | 28.2 ± 0.63 µM |  | CO[C@H]1C[C@@H]2[C@H]([C@H](OC)O1)[C@@](O)(COC(=O)/C=C\c1ccc(O)cc1)C[C@H]2O [Compound 6] | Neuroprotective effect against 6-OHDA-induced PC12 cell injury (cell viability) ([2]; compound 50 μM): apparent protective activity
4 | 24.3 ± 0.41 µM | 13.3 ± 1.86 µM | O=C1O[C@H]([C@@H](O)CO)C(O)=C1O [Ascorbic acid, ascorbic acid, reference compound] | 
5 | 34.2 ± 3.03 µM |  | CO[C@@H]1O[C@@H]2C[C@@H]3[C@H]1[C@@](COC(=O)/C=C\c1ccc(O)cc1)(C[C@H]3O)O2 [Compound 2] | 
6 | 32 ± 1.76 µM |  | COC1CC2C(O)CC(O)(COC(=O)C=Cc3ccc(O)cc3)C2C(OC)O1 (stereo not shown) [Compound 5] | Neuroprotective effect against 6-OHDA-induced PC12 cell injury (cell viability) ([2]; compound 50 μM): apparent protective activity
7 |  | 17.9 ± 4.58 µM | COc1cc(C2OC(c3cc(OC)c(O)c(OC)c3)C(CO)C2CO)cc(OC)c1O (stereo not shown) [Compound 18b, icariol A2] | 
8 | 16.2 ± 2.65 µM |  | COc1cc([C@@H](O)[C@H](CO)Oc2ccc(CCCO)cc2OC)ccc1O [Compound 10b, erythro-4,7,9,9′-tetrahydroxy-3,3′-dimethoxy-8,4′-oxyneolignane] | 
9 | 19.7 ± 0.61 µM |  | COc1cc([C@H](O)[C@@H](CO)Oc2ccc(CCCO)cc2OC)ccc1O [Compound 10a, erythro-4,7,9,9′-tetrahydroxy-3,3′-dimethoxy-8,4′-oxyneolignane] | 
10 | 6.87 ± 0.54 µM | 17.3 ± 7.51 µM | COc1cc(C2OC(c3cc(OC)c(O)c(OC)c3)C(CO)C2CO)cc(OC)c1O (stereo not shown) [Compound 18a, icariol A2] | 
11 | 19.4 ± 0.24 µM |  | O=C(/C=C\c1ccc(O)cc1)OC[C@@]12C[C@@H](O)[C@@H]3C[C@@H](O[C@@H](O)[C@@H]31)O2 [Compound 4] | 
12 | 7.75 ± 0.71 µM | 62.9 ± 5.65 µM | COc1cc(C2OC(c3ccc(O)c(OC)c3)C(CO)C2CO)ccc1O (stereo not shown) [Compound 17b, neo-olivil] | 
13 | 10.1 ± 0.67 µM | 52.6 ± 6.89 µM | COc1cc(CCCO)ccc1O[C@H](CO)[C@@H](O)c1cc(OC)c(O)c(OC)c1 [Compound 9b] | 
14 | 12.1 ± 1.42 µM | 98.7 ± 1.78 µM | COc1cc([C@@H](O)[C@@H](CO)Oc2ccc(CCCO)cc2OC)ccc1O [Compound 11a, threo-4,7,9,9′-tetrahydroxy-3,3′-dimethoxy-8,4′-oxyneolignane] | 
15 | 35.6 ± 1.04 µM |  | O=C(/C=C/c1ccc(O)cc1)OC[C@@]12C[C@@H](O)[C@@H]3C[C@@H](O[C@@H](O)[C@@H]31)O2 [Compound 3] | 
16 | 14.8 ± 1.25 µM | 105 ± 4.11 µM | COc1cc([C@H](O)[C@H](CO)Oc2ccc(CCCO)cc2OC)ccc1O [Compound 11b, threo-4,7,9,9′-tetrahydroxy-3,3′-dimethoxy-8,4′-oxyneolignane] | 
17 | 9.54 ± 0.64 µM | 31.2 ± 1.9 µM | COc1cc([C@H]2Oc3c(O)cc(CCCO)cc3[C@@H]2CO)ccc1O [Compound 12a, cedrusin] | 
18 | 37.1 ± 8.17 µM |  | COc1ccc([C@@H]2Oc3c(O)cc(CCCO)cc3[C@H]2CO)cc1OC [Compound 13b, 4-O-methylcedrusin] | 
19 | 24.2 ± 3.92 µM | 55.1 ± 2.43 µM | COc1cc([C@@H]2Oc3c(OC)cc(CCCO)cc3[C@H]2CO)cc(OC)c1O [Compound 15b, 5-methoxydihydrodehydrodiconiferyl alcohol] | 
20 | 5.96 ± 0.3 µM | 40.8 ± 5.98 µM | COc1cc(C2OC(c3ccc(O)c(OC)c3)C(CO)C2CO)ccc1O (stereo not shown) [Compound 17a, neo-olivil] | 
21 | 39.1 ± 2.3 µM |  | COC1CC2C(O)CC(O)(COC(=O)C=Cc3ccc(O)cc3)C2C(OC)O1 (stereo not shown) [Compound 8] | 
22 | 168 ± 4.34 µM | 20.2 ± 3.53 µM | COc1cc(CCCO)cc(OC)c1OC(CO)CO [Compound 22, 3-deoxyartselaenin C] | 
23 | 12.3 ± 0.24 µM | 44.3 ± 2.05 µM | COc1cc([C@@H]2Oc3c(O)cc(CCCO)cc3[C@H]2CO)ccc1O [Compound 12b, cedrusin] | 
24 | 11.1 ± 3.31 µM | 47.9 ± 6.6 µM | COc1cc(C2c3c(cc(OC)c(O)c3OC)CC(CO)C2CO)cc(OC)c1O (stereo not shown) [Compound 16a, polystachyol] | 
25 | 21.7 ± 3.5 µM |  | COc1ccc([C@H]2Oc3c(O)cc(CCCO)cc3[C@@H]2CO)cc1OC [Compound 13a, 4-O-methylcedrusin] | 
26 | 9.39 ± 0.97 µM | 47.5 ± 7.24 µM | COc1cc(CCCO)ccc1O[C@@H](CO)[C@H](O)c1cc(OC)c(O)c(OC)c1 [Compound 9a] | 
27 | 50.6 ± 2.97 µM |  | CO[C@H]1C[C@H]2C=C[C@](O)(COC(=O)/C=C/c3ccc(O)cc3)[C@H]2[C@H](OC)O1 [Compound 7] | Neuroprotective effect against 6-OHDA-induced PC12 cell injury (cell viability) ([2]; compound 50 μM): apparent protective activity
28 | 17.2 ± 0.89 µM | 40.4 ± 6.09 µM | COc1cc([C@H]2Oc3c(OC)cc(CCCO)cc3[C@@H]2CO)cc(OC)c1O [Compound 15a, 5-methoxydihydrodehydrodiconiferyl alcohol] | 
29 | 15.3 ± 1.37 µM |  | COC1OC2CC3C(O)CC(COC(=O)C=Cc4ccc(O)cc4)(O2)C13 (stereo not shown) [Compound 1] | Neuroprotective effect compared with the positive control NAC ([2]; compound 50 μM, NAC 50 μM, 6-OHDA 150 μM): comparable to the positive control NAC; Neuroprotective effect against 6-OHDA-induced PC12 cell injury (cell viability) ([2]; compound 50 μM): apparent protective activity

Row | SMILES | IC50 [1] | IC50 [3] | other results
30 | COc1cc([C@@H]2Oc3c(OC)cc(CCCO)cc3[C@H]2CO)ccc1O [Compound 14b, dihydrodehydrodiconiferyl alcohol] | 14.1 ± 1.3 µM |  | 
31 | COc1cc([C@@H]2Oc3c(OC)cc(CCCO)cc3[C@H]2CO)ccc1O [Compound 14a, dihydrodehydrodiconiferyl alcohol] | 12.3 ± 1.82 µM |  | IC50 [4]: 52.2 ± 6.17 µM
